Results from paper PMC11852496, “A Modular Customizable Ligand-Conjugate (LC) System Targeting Ghrelin O-Acyltransferase” (Biomolecules, 2025).
Where “and” joins values, the source holds several entries; their conditions need not be identical. Equal entries are not always repeated. Where two headings read alike, the source gives them in different places. Non-standard residues stand in square brackets, D forms with d. Residues, ends and D or L forms follow the SMILES beside them. *: point of attachment. X4 = CN1C(=C/C=C/C=C/C2=[N+](CCCCCC(=O)NCCCn3cc(COC[C@H]4CC[C@H](CN5C(=O)CC(*)C5=O)CC4)nn3)c3ccc(S(=O)(=O)[O-])cc3C2(C)C)C(C)(C)c2cc(S(=O)(=O)O)ccc21; X2 = N=c1ccc2c(-c3ccc(C(=O)NCCCn4cc(COC[C@H]5CC[C@H](CN6C(=O)CC(*)C6=O)CC5)nn4)cc3C(=O)O)c3ccc(N)c(S(=O)(=O)O)c3oc-2c1S(=O)(=O)O; X5 = COc1cc(/N=N/c2ccc(C)cc2[N+](=O)[O-])c(C)cc1/N=N/c1ccc(N(C)CCCC(=O)NCCn2cc(COC[C@H]3CC[C@H](CN4C(=O)CC(*)C4=O)CC3)nn2)cc1; X3 = O=C(NCCCn1cc(COC[C@H]2CC[C@H](CN3C(=O)CC(*)C3=O)CC2)nn1)c1ccc2c(c1)C(=O)OC21c2ccc(O)cc2Oc2cc(O)ccc21; X7 = C#CCOC[C@H]1CC[C@H](CN2C(=O)CC(*)C2=O)CC1; 1Nal = N[CH](Cc1cccc2ccccc12)C(=O)O; X1 = O=C1NC2CSC(CCCCC(=O)*)C2N1; PEG3 = NCCOCCOCCOCCC(=O)O; Dap = NC[CH](N)C(=O)O

Biological target: T1, hGOAT (human ghrelin O-acyltransferase) (Homo sapiens, UniProt Q96T53)
T1 construct: made in house; host or cells: Sf9 insect cells (membrane/microsomal fraction)
T1 sequence (Q96T53 1-435): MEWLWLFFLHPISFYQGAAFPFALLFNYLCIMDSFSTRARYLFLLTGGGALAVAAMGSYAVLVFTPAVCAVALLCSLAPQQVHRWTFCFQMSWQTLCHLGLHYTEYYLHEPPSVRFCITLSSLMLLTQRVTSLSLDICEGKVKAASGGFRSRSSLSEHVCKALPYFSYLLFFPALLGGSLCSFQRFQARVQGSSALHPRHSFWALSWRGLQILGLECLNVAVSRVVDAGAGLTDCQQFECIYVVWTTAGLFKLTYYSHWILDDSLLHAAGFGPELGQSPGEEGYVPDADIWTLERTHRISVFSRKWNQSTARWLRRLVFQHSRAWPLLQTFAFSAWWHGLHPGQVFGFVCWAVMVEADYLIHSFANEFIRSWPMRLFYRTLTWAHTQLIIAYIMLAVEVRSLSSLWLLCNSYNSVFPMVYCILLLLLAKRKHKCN
Assay: GOAT ghrelin acylation (octanoylation) inhibition assay, membrane fraction of Sf9 cells expressing hGOAT, HPLC readout
Type: biochemical
Details: for IC50: average of three independent trials; for change in binding potency with PEG3 linker B compared to linker A: primed ligand (linker B) relative to unprimed ligand (linker A); for IC50 relative to parent ligand 5: fold change relative to ligand 5
Description: The microsomal fraction containing hGOAT for the ligand-binding studies by IC50 determination was prepared according to published protocols. For the GOAT inhibition assay, serial dilutions of 0, 0.15, 0.5, 1, 5, 15, and 50 µM concentrations were prepared in 50% acetonitrile for each ligand used. The membrane fractions from the Sf9 cells expressing GOAT were first thawed on ice then passed through an 18-gauge needle 10 times to homogenize them. The assays were performed with approximately 30 µg of the membrane protein as determined through a Bradford assay. The standard reaction conditions contained 50 mM HEPES pH 7.0, 1 µM MAFP, 30 µg of membrane protein, and ultrapure water. The ligands were added to the reaction mixtures and incubated for 30 min at room temperature protected from light prior to the reaction initiation. The reactions were initiated by octanoyl CoA (300 µM final concentration) and GSSFLCAcdan (0.3 µM final concentration) in a total reaction volume of 50 µL. […] The reactions were stopped with 50 µL of 20% acetic acid in isopropanol. The excess membrane fraction was precipitated with 16.7 µL of 40% trichloroacetic acid (TCA) followed by a 1000× g centrifugation for 2 min. The supernatant was then analyzed via reverse-phase HPLC in 100 µL samples as previously described. The inhibition trials were run in triplicate, with the reported IC50 values representing the average of at least three trials. The IC50 values for all LCs are reported in Supplemental Table S2.
The assays were analyzed on reverse-phase HPLC (Zorbax Eclipse XDB column, 4.6 × 150 mm) using a solvent gradient from […] in aqueous 0.05% TFA over 5 min at a flow rate of 1 mL/min, followed by a gradient of […] in 0.05% TFA over 1 min, 100% acetonitrile for 5 min, and a gradient of 100% acetonitrile to 30% acetonitrile in 0.05% TFA for 5 min. The total time for each run was 16 min. The peptides were detected by the attached acrylodan label with the UV absorbance at 360 nm and fluorescence (λex = 360 nm, λem = 485 nm). The octanoylated peptide typically eluted at around 7.5 min, with the unreacted peptide eluting at around 2.5 min. Chemstation for LC (Agilent Technologies) was used for peak integration.
The peak integrations were used to determine the percent conversion in the presence of either the inhibitor (ligand, LC) or the vehicle (50% acetonitrile). The percent activity was calculated using Equation (1):(1) % peptide octanoylationa=fluorescence of octanoylated peptide/total peptide fluorescence,
IC50 values were determined by fitting Equation (2) to the plot of % activity against inhibitor concentration:(2) % activity=% vehicle1−Inhibitor/Inhibitor+IC50
[formula] Scheme 1 The GOAT inhibition assay for determining ligand binding. The octanoylation of a fluorescently labeled ghrelin-mimetic peptide substrate is inhibited by LC binding, with GOAT octanoylation activity and inhibition determined as described in the Section 2.

[1] = ± one standard deviation, read-out: IC50 against hGOAT

| Compound | IC50 [1] | other results |
| --- | --- | --- |
| CC(C)CC(NC(=O)C(Cc1cccc2ccccc12)NC(=O)C(CN)NC(=O)C(CO)NC(=O)CN)C(=O)NC(CO)C(=O)N1CCCC1C(=O)NC(C(=O)NCCOCCOCCOCCC(=O)NC(CCCCNC(=O)CCCCC1SCC2NC(=O)NC21)C(N)=O)C(C)O (stereo not drawn) [Ligand 13] (H-GS[Dap][1Nal]LSPT[PEG3]K(X1)-NH2; configuration not given here) | 51.8 ± 5.7 nM | – |
| H-GS-Dap-Nal-1-LSPT-Mini-PEG3b-C-SulfoCy5maleimide [Ligand 16’] | – | change in binding potency with PEG3 linker B compared to linker A: approximately two-fold increase |
| CC(C)C[C@H](NC(=O)[C@H](Cc1cccc2ccccc12)NC(=O)[C@H](CN)NC(=O)[C@H](CO)NC(=O)CN)C(=O)N[C@@H](CO)C(=O)N1CCC[C@H]1C(=O)N[C@H](C(=O)NCCOCCOCCOCCC(=O)N[C@@H](CSC1CC(=O)N(C[C@H]2CC[C@H](COCc3cn(CCCNC(=O)c4ccc5c(c4)C(=O)OC54c5ccc(O)cc5Oc5cc(O)ccc54)nn3)CC2)C1=O)C(N)=O)[C@@H](C)O (stereo partly drawn) [Ligand 8, H-GS-Dap-Nal-1-LSPT-Mini-PEG3-C-Linker-FAM5azide] (H-GS[Dap][1Nal]LSPT[PEG3]C(X3)-NH2) | 73.8 ± 4.8 nM | IC50 relative to parent ligand 5: six- to eight-fold higher |
| CC(C)C[C@H](NC(=O)[C@H](Cc1cccc2ccccc12)NC(=O)[C@H](CN)NC(=O)[C@H](CO)NC(=O)CN)C(=O)N[C@@H](CO)C(=O)N1CCC[C@H]1C(=O)N[C@H](C(=O)NCCOCCOCCOCCC(=O)N[C@@H](CCn1cc(COC[C@H]2CC[C@H](CN3C(=O)C=CC3=O)CC2)nn1)C(N)=O)[C@@H](C)O [Ligand 6, H-GS-Dap-Nal-1-LSPT-Mini-PEG3a-AHA-Linker] | 1050 ± 79.5 nM | IC50 (apparent IC50, read-out: IC50 against hGOAT): > 1000 nM and 1000 nM |
| C#CCOC[C@H]1CC[C@H](CN2C(=O)CC(SC[C@H](NC(=O)CCOCCOCCOCCNC(=O)[C@@H](NC(=O)[C@@H]3CCCN3C(=O)[C@H](CO)NC(=O)[C@H](CC(C)C)NC(=O)[C@H](Cc3cccc4ccccc34)NC(=O)[C@H](CN)NC(=O)[C@H](CO)NC(=O)CN)[C@@H](C)O)C(N)=O)C2=O)CC1 (stereo partly drawn) [Ligand 5, H-GS-Dap-Nal-1-LSPT-Mini-PEG3a-C-Linker] (H-GS[Dap][1Nal]LSPT[PEG3]C(X7)-NH2) | 13 ± 1 nM | – |
| CC(C)C[C@H](NC(=O)[C@H](Cc1cccc2ccccc12)NC(=O)[C@H](CN)NC(=O)[C@H](CO)NC(=O)CN)C(=O)N[C@@H](CO)C(=O)N1CCC[C@H]1C(=O)N[C@H](C(=O)NCCOCCOCCOCCC(=O)N[C@@H](CSC1CC(=O)N(C[C@H]2CC[C@H](COCc3cn(CCCNC(=O)c4ccc(-c5c6ccc(=N)c(S(=O)(=O)O)c-6oc6c(S(=O)(=O)O)c(N)ccc56)c(C(=O)O)c4)nn3)CC2)C1=O)C(N)=O)[C@@H](C)O (stereo partly drawn) [Ligand 7, H-GS-Dap-Nal-1-LSPT-Mini-PEG3a-C-Linker-AF488azide] (H-GS[Dap][1Nal]LSPT[PEG3]C(X2)-NH2) | – | IC50 relative to parent ligand 5: six- to eight-fold higher |
| H-GS-Dap-Nal-1-LSPT-Mini-PEG3a-C-Linker-TideQuencher2azide [Ligand 11] | 25.7 ± 6.2 nM | IC50 relative to parent ligand 5: approximately two-fold higher |
| CC(C)C[C@H](NC(=O)[C@H](Cc1cccc2ccccc12)NC(=O)[C@H](CN)NC(=O)[C@H](CO)NC(=O)CN)C(=O)N[C@@H](CO)C(=O)N1CCC[C@H]1C(=O)N[C@H](C(=O)NCCOCCOCCOCCC(=O)N[C@@H](CSC1CC(=O)N(C[C@H]2CC[C@H](COCc3cn(CCCNC(=O)CCCCC[N+]4=C(/C=C/C=C/C=C5N(C)c6ccc(S(=O)(=O)O)cc6C5(C)C)C(C)(C)c5cc(S(=O)(=O)[O-])ccc54)nn3)CC2)C1=O)C(N)=O)[C@@H](C)O (stereo partly drawn) [Ligand 9, H-GS-Dap-Nal-1-LSPT-Mini-PEG3a-C-Linker-SulfoCy5azide] (H-GS[Dap][1Nal]LSPT[PEG3]C(X4)-NH2) | 84.4 ± 11.5 nM | IC50 relative to parent ligand 5: six- to eight-fold higher |
| H-GS-Dap-Nal-1-LSPT-Mini-PEG3b-C-NH2 [Ligand 3’] | – | change in binding potency with PEG3 linker B compared to linker A: approximately four-fold drop |
| COc1cc(/N=N/c2ccc(C)cc2[N+](=O)[O-])c(C)cc1/N=N/c1ccc(N(C)CCCC(=O)NCc2cn(CC[C@H](NC(=O)CCOCCOCCOCCNC(=O)[C@@H](NC(=O)[C@@H]3CCCN3C(=O)[C@H](CO)NC(=O)[C@H](CC(C)C)NC(=O)[C@H](Cc3cccc4ccccc34)NC(=O)[C@H](CN)NC(=O)[C@H](CO)NC(=O)CN)[C@@H](C)O)C(N)=O)nn2)cc1 [Ligand 17, H-GS-Dap-Nal-1-LSPT-Mini-PEG3a-AHA-AzoDye1alkyne] | 3.9 ± 0.4 nM | – |
| COc1cc(/N=N/c2ccc(C)cc2[N+](=O)[O-])c(C)cc1/N=N/c1ccc(N(C)CCCC(=O)NCCn2cc(COC[C@H]3CC[C@H](CN4C(=O)CC(SC[C@H](NC(=O)CCOCCOCCOCCNC(=O)[C@@H](NC(=O)[C@@H]5CCCN5C(=O)[C@H](CO)NC(=O)[C@H](CC(C)C)NC(=O)[C@H](Cc5cccc6ccccc56)NC(=O)[C@H](CN)NC(=O)[C@H](CO)NC(=O)CN)[C@@H](C)O)C(N)=O)C4=O)CC3)nn2)cc1 (stereo partly drawn) [Ligand 12, H-GS-Dap-Nal-1-LSPT-Mini-PEG3-C-Linker-AzoDye1azide] (H-GS[Dap][1Nal]LSPT[PEG3]C(X5)-NH2) | 5.9 ± 1.7 nM | – |
| CC(C)C[C@H](NC(=O)[C@H](Cc1cccc2ccccc12)NC(=O)[C@H](CN)NC(=O)[C@H](CO)NC(=O)CN)C(=O)N[C@@H](CO)C(=O)N1CCC[C@H]1C(=O)N[C@H](C(=O)NCCOCCOCCOCCC(=O)N[C@@H](CSC1CC(=O)N(CCNC(=O)CCCCC[N+]2=C(/C=C/C=C/C=C3N(C)c4ccc(S(=O)(=O)O)cc4C3(C)C)C(C)(C)c3cc(S(=O)(=O)[O-])ccc32)C1=O)C(N)=O)[C@@H](C)O (stereo partly drawn) [Ligand 16] | 56.8 ± 8.6 nM | – |
| CC(C)CC(NC(=O)C(Cc1cccc2ccccc12)NC(=O)C(CN)NC(=O)C(CO)NC(=O)CN)C(=O)NC(CO)C(=O)N1CCCC1C(=O)NC(C(=O)NCCOCCOCCOCCC(=O)NC(CS)C(N)=O)C(C)O (stereo not drawn) [Ligand 3] (H-GS[Dap][1Nal]LSPT[PEG3]C-NH2; configuration not given here) | 28.9 nM and 29 nM | – |
| COc1cc2cc(c1Cl)N(C)C(=O)C[C@H](OC(=O)[C@H](C)N(C)C(=O)CCSC1CC(=O)N(C[C@H]3CC[C@H](COCc4cn(CC[C@H](NC(=O)CCOCCOCCOCCNC(=O)[C@@H](NC(=O)[C@@H]5CCCN5C(=O)[C@H](CO)NC(=O)[C@H](CC(C)C)NC(=O)[C@H](Cc5cccc6ccccc56)NC(=O)[C@H](CN)NC(=O)[C@H](CO)NC(=O)CN)[C@@H](C)O)C(N)=O)nn4)CC3)C1=O)[C@]1(C)O[C@H]1[C@H](C)[C@@H]1C[C@@](O)(NC(=O)O1)[C@H](OC)/C=C/C=C(\C)C2 (stereo partly drawn) [Ligand 14, H-GS-Dap-Nal-1-LSPT-Mini-PEG3a-AHA-Linker-Mertansine] | – | IC50 (IC50 against hGOAT, ± one standard deviation): 18.8 nM and ~20 nM |
